Measurements reported in US10681909B2, “Herbicidal triazoles” (FMC Corporation, priority 2014, dated 2020).

Tests used:
rice = assay: Test B flooded paddy test; assay type: in vivo, Oryza sativa; conditions: applied to paddy water at 2-leaf stage, visual rating after 13 to 15 d, scale 0 (no effect) to 100 (complete control)
Source text: (§1) At time of treatment, test pots were flooded to 3 cm above the soil surface, treated by application of test compounds directly to the paddy water, and then maintained at that water depth for the duration of the test. Treated plants and controls were maintained in a greenhouse for 13 to 15 d, after which time all species were compared to controls and visually evaluated. […] A dash (-) response means no test result.

pigweed [1] = assay: Test A preemergence; assay type: in vivo, Amaranthus retroflexus; conditions: 0 to 100 scale (0 no effect, 100 complete control)
Source text: (§2) Seeds of plant species selected from barnyardgrass (Echinochloa crus-galli), crabgrass, large (large crabgrass, Digitaria sanguinalis), kochia (Kochia scoparia), ragweed (common ragweed, Ambrosia elatior), foxtail, giant (giant foxtail, Setaria faberii), morningglory (Ipomoea spp.), pigweed (Amaranthus retroflexus), velvetleaf (Abutilon theophrasti), ryegrass, Italian (Italian ryegrass, Lolium multiflorum), wheat (Triticum aestivum), and corn (Zea mays) were planted into a blend of loam soil and sand and treated preemergence with a directed soil spray using test chemicals formulated in a non-phytotoxic solvent mixture which included a surfactant. At the same time, plants selected from these crop and weed species and also blackgrass (Alopecurus myosuroides), and galium (catchweed bedstraw, Galium aparine), were planted in pots containing the same blend of loam soil and sand and treated with postemergence applications of test chemicals formulated in the same manner. Plants ranged in height from 2 to 10 cm and were in the one- to two-leaf stage for the postemergence treatment. […] A dash (-) response means no test result.

foxtail, giant [2] = assay: Test A preemergence; assay type: in vivo, Setaria faberii; conditions: 0 to 100 scale (0 no effect, 100 complete control)
Source text: as §2

wheat [3] = assay: Test A postemergence; assay type: in vivo, Triticum aestivum; conditions: 0 to 100 scale (0 no effect, 100 complete control), approx. 10 d
Source text: as §2

ducksalad = assay: Test B flooded paddy test; assay type: in vivo, Heteranthera limosa; conditions: applied to paddy water at 2-leaf stage, visual rating after 13 to 15 d, scale 0 (no effect) to 100 (complete control)
Source text: as §1

wheat [4] = assay: Test A preemergence; assay type: in vivo, Triticum aestivum; conditions: 0 to 100 scale (0 no effect, 100 complete control)
Source text: as §2

morningglory [5] = assay: Test A postemergence; assay type: in vivo, Ipomoea spp.; conditions: 0 to 100 scale (0 no effect, 100 complete control), approx. 10 d
Source text: as §2

foxtail, giant [6] = assay: Test A postemergence; assay type: in vivo, Setaria faberii; conditions: 0 to 100 scale (0 no effect, 100 complete control), approx. 10 d
Source text: as §2

barnyardgrass [7] = assay: Test B flooded paddy test; assay type: in vivo, Echinochloa crus-galli; conditions: applied to paddy water at 2-leaf stage, visual rating after 13 to 15 d, scale 0 (no effect) to 100 (complete control)
Source text: as §1

barnyardgrass [8] = assay: Test A preemergence; assay type: in vivo, Echinochloa crus-galli; conditions: 0 to 100 scale (0 no effect, 100 complete control)
Source text: as §2

crabgrass, large [9] = assay: Test A postemergence; assay type: in vivo, Digitaria sanguinalis; conditions: 0 to 100 scale (0 no effect, 100 complete control), approx. 10 d
Source text: as §2

velvetleaf [10] = assay: Test A preemergence; assay type: in vivo, Abutilon theophrasti; conditions: 0 to 100 scale (0 no effect, 100 complete control)
Source text: as §2

corn [11] = assay: Test A preemergence; assay type: in vivo, Zea mays; conditions: 0 to 100 scale (0 no effect, 100 complete control)
Source text: as §2

crabgrass, large [12] = assay: Test A preemergence; assay type: in vivo, Digitaria sanguinalis; conditions: 0 to 100 scale (0 no effect, 100 complete control)
Source text: as §2

pigweed [13] = assay: Test A postemergence; assay type: in vivo, Amaranthus retroflexus; conditions: 0 to 100 scale (0 no effect, 100 complete control), approx. 10 d
Source text: as §2

morningglory [14] = assay: Test A preemergence; assay type: in vivo, Ipomoea spp.; conditions: 0 to 100 scale (0 no effect, 100 complete control)
Source text: as §2

velvetleaf [15] = assay: Test A postemergence; assay type: in vivo, Abutilon theophrasti; conditions: 0 to 100 scale (0 no effect, 100 complete control), approx. 10 d
Source text: as §2

barnyardgrass [16] = assay: Test A postemergence; assay type: in vivo, Echinochloa crus-galli; conditions: 0 to 100 scale (0 no effect, 100 complete control), approx. 10 d
Source text: as §2

sedge, umbrella = assay: Test B flooded paddy test; assay type: in vivo, Cyperus difformis; conditions: applied to paddy water at 2-leaf stage, visual rating after 13 to 15 d, scale 0 (no effect) to 100 (complete control)
Source text: as §1

corn [17] = assay: Test A postemergence; assay type: in vivo, Zea mays; conditions: 0 to 100 scale (0 no effect, 100 complete control), approx. 10 d
Source text: as §2

Compound | Plant response rating, Pigweed (pigweed [1]; 125 g ai/ha) | Plant response rating, Pigweed (pigweed [1]; 500 g ai/ha, approx. 10 d) | Plant response rating, Foxtail, Giant (foxtail, giant [2]; 125 g ai/ha) | Plant response rating, Foxtail, Giant (foxtail, giant [2]; 500 g ai/ha, approx. 10 d) | Plant response rating, Wheat (wheat [3]; 125 g ai/ha) | Plant response rating, Wheat (wheat [3]; 500 g ai/ha) | Plant response rating, Wheat (wheat [4]; 125 g ai/ha) | Plant response rating, Wheat (wheat [4]; 500 g ai/ha, approx. 10 d) | Plant response rating, Morningglory (morningglory [5]; 125 g ai/ha) | Plant response rating, Morningglory (morningglory [5]; 500 g ai/ha) | Plant response rating, Foxtail, Giant (foxtail, giant [6]; 125 g ai/ha) | Plant response rating, Foxtail, Giant (foxtail, giant [6]; 500 g ai/ha) | Plant response rating, Barnyardgrass (barnyardgrass [8]; 125 g ai/ha) | Plant response rating, Barnyardgrass (barnyardgrass [8]; 500 g ai/ha, approx. 10 d) | Plant response rating, Crabgrass, Large (crabgrass, large [9]; 125 g ai/ha) | Plant response rating, Crabgrass, Large (crabgrass, large [9]; 500 g ai/ha) | Plant response rating, Velvetleaf (velvetleaf [10]; 125 g ai/ha) | Plant response rating, Velvetleaf (velvetleaf [10]; 500 g ai/ha, approx. 10 d) | Plant response rating, Corn (corn [11]; 125 g ai/ha) | Plant response rating, Corn (corn [11]; 500 g ai/ha, approx. 10 d) | also measured
CCCn1nc(-c2ccc(F)cc2)nc1C(=O)c1ccnc(C(F)(F)F)c1 [Compound 20] | 20 | 90 | 80 | 90 | 20 | 30 | 0 | 20 | 10 | 10 | 10 | 10 | 0 | 80 | 20 | 10 | 0 | 0 | 0 | 0 | Plant response rating, Rice, Flood (rice; 125 g ai/ha): 0; Plant response rating, Ducksalad, Flood (ducksalad; 125 g ai/ha): 0; Plant response rating, Barnyardgrass, Flood (barnyardgrass [7]; 125 g ai/ha): 0; Plant response rating, Crabgrass, Large (crabgrass, large [12]; 125 g ai/ha): 20; Plant response rating, Crabgrass, Large (crabgrass, large [12]; 500 g ai/ha, approx. 10 d): 100; Plant response rating, Pigweed (pigweed [13]; 125 g ai/ha): 40; Plant response rating, Pigweed (pigweed [13]; 500 g ai/ha): 90; Plant response rating, Morningglory (morningglory [14]; 125 g ai/ha): 0; Plant response rating, Morningglory (morningglory [14]; 500 g ai/ha, approx. 10 d): 20; Plant response rating, Velvetleaf (velvetleaf [15]; 125 g ai/ha): 0; Plant response rating, Velvetleaf (velvetleaf [15]; 500 g ai/ha): 40; Plant response rating, Barnyardgrass (barnyardgrass [16]; 125 g ai/ha): 0; Plant response rating, Barnyardgrass (barnyardgrass [16]; 500 g ai/ha): 20; Plant response rating, Sedge, Umbrella, Flood (sedge, umbrella; 125 g ai/ha): 0; Plant response rating, Corn (corn [17]; 125 g ai/ha): 20; Plant response rating, Corn (corn [17]; 500 g ai/ha): 20
CCc1nc(-c2cccc(C(F)(F)F)c2)nn1Cc1ccnc(C(F)(F)F)c1 [Compound 11] | 30 | 100 | 20 | 90 | 10 | 20 | 0 | 0 | 80 | 90 | 20 | 60 | 0 | 30 | 20 | 60 | 0 | 0 | 0 | 0 | Plant response rating, Rice, Flood (rice; 250 g ai/ha): 0; Plant response rating, Ducksalad, Flood (ducksalad; 250 g ai/ha): 0; Plant response rating, Barnyardgrass, Flood (barnyardgrass [7]; 250 g ai/ha): 0; Plant response rating, Crabgrass, Large (crabgrass, large [12]; 125 g ai/ha): 20; Plant response rating, Crabgrass, Large (crabgrass, large [12]; 500 g ai/ha, approx. 10 d): 90; Plant response rating, Pigweed (pigweed [13]; 125 g ai/ha): 80; Plant response rating, Pigweed (pigweed [13]; 500 g ai/ha): 100; Plant response rating, Morningglory (morningglory [14]; 125 g ai/ha): 0; Plant response rating, Morningglory (morningglory [14]; 500 g ai/ha, approx. 10 d): 20; Plant response rating, Velvetleaf (velvetleaf [15]; 125 g ai/ha): 50; Plant response rating, Velvetleaf (velvetleaf [15]; 500 g ai/ha): 100; Plant response rating, Barnyardgrass (barnyardgrass [16]; 125 g ai/ha): 0; Plant response rating, Barnyardgrass (barnyardgrass [16]; 500 g ai/ha): 50; Plant response rating, Sedge, Umbrella, Flood (sedge, umbrella; 250 g ai/ha): 0; Plant response rating, Corn (corn [17]; 125 g ai/ha): 20; Plant response rating, Corn (corn [17]; 500 g ai/ha): 50
